Results as given in article PMC9386811 (ACS Omega, 2022).

What follows are molecules tested against alpha-glucosidase from Saccharomyces cerevisiae (Baker's yeast) (Saccharomyces cerevisiae, UniProt P53341) (assay: In vitro α-glucosidase inhibitory activity).
Assay type: biochemical

Chain of alpha-glucosidase from Saccharomyces cerevisiae (Baker's yeast) (P53341 whole entry): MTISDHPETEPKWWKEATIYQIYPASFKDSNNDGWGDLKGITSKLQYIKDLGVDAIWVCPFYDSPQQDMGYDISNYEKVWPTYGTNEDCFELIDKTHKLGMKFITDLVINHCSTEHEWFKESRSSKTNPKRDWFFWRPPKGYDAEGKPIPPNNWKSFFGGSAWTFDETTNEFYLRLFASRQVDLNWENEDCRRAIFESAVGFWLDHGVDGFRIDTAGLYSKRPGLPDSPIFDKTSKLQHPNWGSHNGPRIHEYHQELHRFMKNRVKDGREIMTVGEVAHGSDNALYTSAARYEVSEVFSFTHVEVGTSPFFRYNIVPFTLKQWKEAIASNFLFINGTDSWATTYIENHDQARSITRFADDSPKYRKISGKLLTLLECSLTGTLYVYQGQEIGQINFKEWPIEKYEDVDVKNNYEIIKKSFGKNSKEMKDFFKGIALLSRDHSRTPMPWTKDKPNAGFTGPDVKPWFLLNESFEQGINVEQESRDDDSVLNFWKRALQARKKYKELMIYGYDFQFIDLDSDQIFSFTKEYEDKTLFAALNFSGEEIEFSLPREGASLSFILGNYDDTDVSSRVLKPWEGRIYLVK

Row | Structure (SMILES) | IC50 [µM]
1 | CCCCCCSc1nc2ccccc2n1CC(=O)NN1C(=O)CSC1c1ccc([N+](=O)[O-])cc1 (stereo not drawn) [Compound 5, 2-[2-(Hexylthio)-1H-benzo[d]imidazole-1-yl]-N-[2-(4-nitrophenyl)-4-oxothiazolidin-3-yl]acetamide] | 5.22 ± 0.14
2 | CCCCCCSc1nc2ccccc2n1CC(=O)NN1C(=O)CSC1c1ccc(C=O)cc1 (stereo not drawn) [Compound 8, 2-[2-(Hexylthio)-1H-benzo[d]imidazole-1-yl]-N-[2-(4-formylphenyl)-4-oxothiazolidin-3-yl]acetamide] | 5.69 ± 0.1
3 | CCCCCCSc1nc2ccccc2n1CC(=O)NN1C(=O)CSC1c1cccc(OC)c1O (stereo not drawn) [Compound 11, 2-[2-(Hexylthio)-1H-benzo[d]imidazole-1-yl]-N-[-2-(2-hydroxy-3-methoxyphenyl)-4-oxothiazolidin-3-yl]acetamide] | 24.1 ± 0.3
4 | CCCCCCSc1nc2ccccc2n1CC(=O)NN1C(=O)CSC1c1ccc(Cl)cc1Cl (stereo not drawn) [Compound 12, 2-[2-(Hexylthio)-1H-benzo[d]imidazole-1-yl]-N-[2-(2,4-dichlorophenyl)-4-oxothiazolidin-3-yl]acetamide] | 33.4 ± 0.38
5 | CCCCCCSc1nc2ccccc2n1CC(=O)NN1C(=O)CSC1c1ccc(O)c(OC)c1 (stereo not drawn) [Compound 14, 2-[2-(Hexylthio)-1H-benzo[d]imidazole-1-yl]-N-[2-(4-hydroxy-3-methoxyphenyl)-4-oxothiazolidin-3-yl]acetamide] | 10.2 ± 0.12
6 | CCCCCCSc1nc2ccccc2n1CC(=O)NN1C(=O)CSC1c1ccccc1OC (stereo not drawn) [Compound 15, 2-[2-(Hexylthio)-1H-benzo[d]imidazole-1-yl]-N-[2-(2-methoxyphenyl)-4-oxothiazolidin-3-yl]acetamide] | 89.28 ± 0.52
7 | CCCCCCSc1nc2ccccc2n1CC(=O)NN1C(=O)CSC1c1ccc(OC)cc1 (stereo not drawn) [Compound 17, 2-[2-(Hexylthio)-1H-benzo[d]imidazole-1-yl]-N-[2-(4-methoxyphenyl)-4-oxothiazolidin-3-yl]acetamide] | 63.68 ± 0.52
8 | CCCCCCSc1nc2ccccc2n1CC(=O)NN1C(=O)CSC1c1ccc(C)o1 (stereo not drawn) [Compound 19, 2-[2-(Hexylthio)-1H-benzo[d]imidazole-1-yl]-N-[2-(5-methylfuran-2-yl)-4-oxothiazolidin-3-yl]acetamide] | 39.06 ± 0.27
9 | CCCCCCSc1nc2ccccc2n1CC(=O)NN1C(=O)CSC1c1cccs1 (stereo not drawn) [Compound 21, 2-[2-(Hexylthio)-1H-benzo[d]imidazole-1-yl]-N-[4-oxo-2-(thiophen-2-yl)-thiazolidin-3-yl]acetamide] | 54.4 ± 0.65
10 | CCCCCCSc1nc2ccccc2n1CC(=O)NN1C(=O)CSC1c1ccc2ccccc2c1 (stereo not drawn) [Compound 22, 2-[2-(Hexylthio)-1H-benzo[d]imidazole-1-yl]-N-[2-(naphthalen-2-yl)-4-oxothiazolidin-3-yl]acetamide] | 41 ± 0.36
11 | CCCCCCSc1nc2ccccc2n1CC(=O)NN1C(=O)CSC1c1ccc(F)cc1 (stereo not drawn) [Compound 23, 2-[2-(Hexylthio)-1H-benzo[d]imidazole-1-yl]-N-[2-(4-fluorophenyl)-4-oxothiazolidin-3-yl]acetamide] | 26.38 ± 0.18
12 | CCCCCCSc1nc2ccccc2n1CC(=O)NN1C(=O)CSC1c1ccc(C)cc1 (stereo not drawn) [Compound 24, 2-[2-(Hexylthio)-1H-benzo[d]imidazole-1-yl)-N-[4-oxo-2-(p-tolyl)thiazolidin-3-yl]acetamide] | 23.7 ± 0.25
